Key:
Assay in all cases: relative viability (nuclei count vs DMSO), 5 days (fraction); higher = more cells survive
Carfilzomib + Phenformin = compound: CC(C)C[C@H](NC(=O)[C@H](CCc1ccccc1)NC(=O)CN1CCOCC1)C(=O)N[C@@H](Cc1ccccc1)C(=O)N[C@@H](CC(C)C)C(=O)[C@@]1(C)CO1 [Carfilzomib] + N=C(N)NC(=N)NCCc1ccccc1 [Phenformin] (partner 250 µM)
In short: (§1)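 Each reported value is a median over duplicate plates. It expresses relative viability: treated-well nuclei count divided by vehicle-well nuclei count. Lung cancer cell lines in 1536-well plates were dosed by pin tool a day after seeding, alone with one drug or with a fixed anchor-drug dose plus five library-drug doses (not always all listed) in √10 steps, and nuclei were counted after 5 days.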

Carfilzomib + AZD7762 = compound: CC(C)C[C@H](NC(=O)[C@H](CCc1ccccc1)NC(=O)CN1CCOCC1)C(=O)N[C@@H](Cc1ccccc1)C(=O)N[C@@H](CC(C)C)C(=O)[C@@]1(C)CO1 [Carfilzomib] + NC(=O)Nc1cc(-c2cccc(F)c2)sc1C(=O)N[C@H]1CCCNC1 [AZD7762] (partner 0.2 µM)
In short: as §1

Olaparib + Trametinib = compound: O=C(c1cc(Cc2n[nH]c(=O)c3ccccc23)ccc1F)N1CCN(C(=O)C2CC2)CC1 [Olaparib] + CC(=O)Nc1cccc(-n2c(=O)n(C3CC3)c(=O)c3c(Nc4ccc(I)cc4F)n(C)c(=O)c(C)c32)c1 [Trametinib] (partner 0.02 µM)
In short: as §1

Crizotinib + Tozasertib = compound: C[C@@H](Oc1cc(-c2cnn(C3CCNCC3)c2)cnc1N)c1c(Cl)ccc(F)c1Cl [Crizotinib] + Cc1cc(Nc2cc(N3CCN(C)CC3)nc(Sc3ccc(NC(=O)C4CC4)cc3)n2)n[nH]1 [Tozasertib] (partner 0.1 µM)
In short: as §1

Crizotinib + Vorinostat = compound: C[C@@H](Oc1cc(-c2cnn(C3CCNCC3)c2)cnc1N)c1c(Cl)ccc(F)c1Cl [Crizotinib] + O=C(CCCCCCC(=O)Nc1ccccc1)NO [Vorinostat] (partner 1 µM)
In short: as §1

NCI-H1793
relative viability (Carfilzomib + Phenformin; first compound 0.003162 µM): 0.404
relative viability (Carfilzomib + Phenformin; first compound 0.01 µM): 0.296
relative viability (Carfilzomib + Phenformin; first compound 0.03162 µM): 0.407
relative viability (Carfilzomib + Phenformin; first compound 0.1 µM): 0.261
relative viability (Carfilzomib + AZD7762; first compound 0.001 µM): 0.481
relative viability (Carfilzomib + AZD7762; first compound 0.003162 µM): 0.883
relative viability (Carfilzomib + AZD7762; first compound 0.01 µM): 0.599
relative viability (Carfilzomib + AZD7762; first compound 0.03162 µM): 0.757
relative viability (Carfilzomib + AZD7762; first compound 0.1 µM): 0.506
relative viability (Olaparib + Trametinib; first compound 0.08 µM): 0.522
relative viability (Olaparib + Trametinib; first compound 0.253 µM): 0.427
relative viability (Olaparib + Trametinib; first compound 2.53 µM): 0.395
relative viability (Olaparib + Trametinib; first compound 8 µM): 0.476
relative viability (Crizotinib + Tozasertib; first compound 0.03162 µM): 0.342
relative viability (Crizotinib + Tozasertib; first compound 0.1 µM): 0.32
relative viability (Crizotinib + Tozasertib; first compound 1 µM): 0.449
relative viability (Crizotinib + Vorinostat; first compound 0.03162 µM): 0.765
relative viability (Crizotinib + Vorinostat; first compound 0.1 µM): 0.748
relative viability (Crizotinib + Vorinostat; first compound 1 µM): 0.896

Reference: the supplement of paper PMC10307832
